Experimental data as given in publication PMC11406361, “Several orphan solute carriers functionally identified as organic cation transporters: Substrates specificity compared with known cation transporters” (The Journal of Biological Chemistry, 2024).

Assays:
SLC19A2 = biological target: T1, SLC19A2 (Homo sapiens, UniProt O60779); assay: Uptake ratio screen, SLC19A2-overexpressing HEK293 over empty vector cells; format: cell-based; settings: 2.5 μM, 2 min
T1 construct: expressed in transfected cells
T1 sequence (O60779 1-497): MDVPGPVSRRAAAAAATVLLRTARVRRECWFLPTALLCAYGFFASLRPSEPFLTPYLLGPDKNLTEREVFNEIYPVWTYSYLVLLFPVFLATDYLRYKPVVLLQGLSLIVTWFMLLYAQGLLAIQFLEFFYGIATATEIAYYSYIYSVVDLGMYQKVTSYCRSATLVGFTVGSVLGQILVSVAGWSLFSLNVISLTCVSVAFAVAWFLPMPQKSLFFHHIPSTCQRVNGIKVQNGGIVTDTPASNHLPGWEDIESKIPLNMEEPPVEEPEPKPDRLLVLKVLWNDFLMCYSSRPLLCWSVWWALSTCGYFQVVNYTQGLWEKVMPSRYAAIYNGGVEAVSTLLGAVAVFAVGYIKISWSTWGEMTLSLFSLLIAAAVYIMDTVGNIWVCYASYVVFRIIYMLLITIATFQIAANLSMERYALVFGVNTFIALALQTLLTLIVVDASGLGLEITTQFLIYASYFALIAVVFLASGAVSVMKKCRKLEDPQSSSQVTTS
Procedure: (§1) Typically discussed substrates of the proton organic-cation antiporter ([14]) are highlighted in dark green in Figure 1.
(§2) In preparation for transport experiments, 24-well plates were pre-coated with poly-D-lysine (Sigma-Aldrich) and 300,000 cells were plated per well and incubated for 48 h. Firstly, the 24-well plate was placed on a heating plate at 37 °C, and the cells were washed with 37 °C HBSS^+ buffer (Hank’s balanced salt solution supplemented with 10 mM Hepes and adjusted to pH 7.4; Thermo Fisher Scientific). The substance-of-interest, which was diluted in 37 °C HBSS^+ to a desired concentration, was added to the cells for exactly 2 min. […] The uptake was stopped with ice-cold HBSS^+, and the 24-well plate was removed from the heating plate. The cells were washed twice with the cold HBSS^+ before they were lysed for 15 min with 80% (v/v) acetonitrile containing the respective internal standard for mass spectrometry. For variations in seeded cell numbers between the cell lines, several wells were lysed in RIPA buffer and used for total protein quantification using a bicinchoninic assay ([74]) and bovine serum albumin as calibration.
(§3) The intracellular drug concentrations after transport experiments were analyzed by high-performance liquid chromatography coupled to tandem mass spectrometry analysis. The HPLC consisted of a Shimadzu Nexera HPLC System with a SIL-30AC autosampler, a LC-30AD pump, a CTO-20AC column oven, and a CBM-20A controller (Shimadzu). The reverse-phase chromatography of compounds was accomplished with a Brownlee SPP RP-Amide column with 4.6 × 100 mm inner dimensions, a particle size of 2.7 μm, and a preceding Phenomenex C-18 guard column. […] After separation, the detection of substances was performed with an API 4000 tandem mass spectrometer (AB SCIEX, https://sciex.com/support/software-support/software-downloads), followed by quantification of results with the Analyst software (AB SCIEX, version 1.6.2). […]
(§4) Transport-mediated net uptake was determined as fold-increase of transporter-overexpressing cells over empty vector–transfected control cells.

SLC35G3 = SLC35G3 (Homo sapiens, UniProt Q8N808); assay: Uptake ratio screen, SLC35G3-overexpressing HEK293 over empty vector cells; format: cell-based; parameters: by amplifying the entire gene-of-interest within the HEK293 genome via a long-range PCR; settings: 2.5 μM substrate, 2 min, HEK293
SLC35F5 = biological target: T2, SLC35F5 (Homo sapiens, UniProt Q8WV83); assay: Uptake ratio screen, SLC35F5-overexpressing HEK293 over empty vector cells; format: cell-based; parameters: by amplifying the entire gene-of-interest within the HEK293 genome via a long-range PCR; settings: 2.5 μM, 2 min
T2 sequence (Q8WV83 1-523): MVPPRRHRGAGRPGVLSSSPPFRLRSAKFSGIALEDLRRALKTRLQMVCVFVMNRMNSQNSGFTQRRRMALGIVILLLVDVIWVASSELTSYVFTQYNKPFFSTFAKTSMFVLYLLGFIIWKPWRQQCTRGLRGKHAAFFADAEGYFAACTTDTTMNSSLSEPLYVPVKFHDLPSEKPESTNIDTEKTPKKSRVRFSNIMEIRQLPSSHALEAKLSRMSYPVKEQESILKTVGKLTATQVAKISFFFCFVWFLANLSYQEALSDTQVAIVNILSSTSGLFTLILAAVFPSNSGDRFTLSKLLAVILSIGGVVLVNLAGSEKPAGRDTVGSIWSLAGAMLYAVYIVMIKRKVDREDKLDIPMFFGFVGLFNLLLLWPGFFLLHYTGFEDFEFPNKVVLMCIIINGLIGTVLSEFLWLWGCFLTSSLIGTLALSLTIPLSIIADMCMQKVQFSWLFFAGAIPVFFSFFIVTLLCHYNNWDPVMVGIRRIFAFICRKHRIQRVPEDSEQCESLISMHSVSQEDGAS
Procedure: as §1, §2
(§5) The intracellular drug concentrations after transport experiments were analyzed by high-performance liquid chromatography coupled to tandem mass spectrometry analysis. The HPLC consisted of a Shimadzu Nexera HPLC System with a SIL-30AC autosampler, a LC-30AD pump, a CTO-20AC column oven, and a CBM-20A controller (Shimadzu). The reverse-phase chromatography of compounds was accomplished with a Brownlee SPP RP-Amide column with 4.6 × 100 mm inner dimensions, a particle size of 2.7 μm, and a preceding Phenomenex C-18 guard column. The mobile phase was composed of an organic additive with acetonitrile:methanol 6:1 (v/v) in total concentrations between 3% and 50% (v/v) and 0.1% (v/v) formic acid in the aqueous component of the eluent. During separation, the column oven was held at 40 °C and the mobile phase was maintained at a flow rate of 300 or 400 μl/min. After separation, the detection of substances was performed with an API 4000 tandem mass spectrometer (AB SCIEX, https://sciex.com/support/software-support/software-downloads), followed by quantification of results with the Analyst software (AB SCIEX, version 1.6.2). The composition of chromatographic conditions, as well as detailed mass spectrometric detection parameters, are listed in Table S5.
as §4

SLC22A18 = biological target: T3, SLC22A18 (Homo sapiens, UniProt Q96BI1); assay: Uptake ratio screen, SLC22A18-overexpressing HEK293 over empty vector cells; format: cell-based; settings: 2.5 μM (nicotine 10 μM), 2 min
T3 construct: by amplifying the entire gene-of-interest within the HEK293 genome via a long-range PCR
Procedure: as §1
In preparation for transport experiments, 24-well plates were pre-coated with poly-D-lysine (Sigma-Aldrich) and 300,000 cells were plated per well and incubated for 48 h. Firstly, the 24-well plate was placed on a heating plate at 37 °C, and the cells were washed with 37 °C HBSS^+ buffer (Hank’s balanced salt solution supplemented with 10 mM Hepes and adjusted to pH 7.4; Thermo Fisher Scientific). The substance-of-interest, which was diluted in 37 °C HBSS^+ to a desired concentration, was added to the cells for exactly 2 min. […] For variations in seeded cell numbers between the cell lines, several wells were lysed in RIPA buffer and used for total protein quantification using a bicinchoninic assay ([74]) and bovine serum albumin as calibration.
The intracellular drug concentrations after transport experiments were analyzed by high-performance liquid chromatography coupled to tandem mass spectrometry analysis. […] After separation, the detection of substances was performed with an API 4000 tandem mass spectrometer (AB SCIEX, https://sciex.com/support/software-support/software-downloads), followed by quantification of results with the Analyst software (AB SCIEX, version 1.6.2). […]

SLC35F4 = biological target: T4, SLC35F4 (Homo sapiens, UniProt A4IF30); assay: Uptake ratio screen, SLC35F4-overexpressing HEK293 over empty vector cells; format: cell-based; parameters: by amplifying the entire gene-of-interest within the HEK293 genome via a long-range PCR; settings: 2.5 μM, 2 min
T4 sequence (A4IF30 1-521): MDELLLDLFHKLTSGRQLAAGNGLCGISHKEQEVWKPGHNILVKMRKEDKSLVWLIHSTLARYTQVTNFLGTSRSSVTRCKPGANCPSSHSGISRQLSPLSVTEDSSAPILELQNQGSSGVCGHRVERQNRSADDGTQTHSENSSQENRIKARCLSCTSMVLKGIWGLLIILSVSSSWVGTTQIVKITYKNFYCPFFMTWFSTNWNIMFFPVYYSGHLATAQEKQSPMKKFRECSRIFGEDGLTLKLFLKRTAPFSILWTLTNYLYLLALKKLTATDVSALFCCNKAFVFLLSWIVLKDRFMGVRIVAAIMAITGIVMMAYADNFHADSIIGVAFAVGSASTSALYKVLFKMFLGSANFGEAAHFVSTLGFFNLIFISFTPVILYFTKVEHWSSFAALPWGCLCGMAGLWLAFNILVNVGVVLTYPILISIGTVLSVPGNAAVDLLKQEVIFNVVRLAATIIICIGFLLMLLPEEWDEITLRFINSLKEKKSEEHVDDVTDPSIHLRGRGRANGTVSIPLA
Procedure: as §1, §2, §5, §4

SLC22A15 = biological target: T5, SLC22A15 (Homo sapiens, UniProt Q8IZD6); assay: Uptake ratio screen, SLC22A15-overexpressing HEK293 over empty vector cells; format: cell-based; settings: 2.5 μM (nicotine 10 μM), 2 min
T5 construct: by amplifying the entire gene-of-interest within the HEK293 genome via a long-range PCR
Procedure: as §1, §2, §5, §4

SLC38A10 = SLC38A10 (Homo sapiens, UniProt Q9HBR0)
SLC47A2 = SLC47A2 (Homo sapiens, UniProt Q86VL8); assay: Uptake ratio screen, SLC47A2-overexpressing HEK293 over empty vector cells; format: cell-based; settings: 2.5 μM, 2 min
Procedure: as §1, §2, §3, §4

OCT1 = OCT1 (Homo sapiens, UniProt O15245); settings: 2.5 μM, 2 min, HEK293
Procedure: as §1, §2, §5, §4

OCT2 = OCT2 (Homo sapiens, UniProt O15244); settings: 2.5 μM, 2 min, HEK293
Procedure: as §1, §2, §5, §4

SLC47A1 = biological target: T6, SLC47A1 (Homo sapiens, UniProt Q96FL8); assay: Uptake ratio screen, SLC47A1-overexpressing HEK293 over empty vector cells; format: cell-based; settings: 2.5 μM, 2 min
T6 sequence (Q96FL8 1-570): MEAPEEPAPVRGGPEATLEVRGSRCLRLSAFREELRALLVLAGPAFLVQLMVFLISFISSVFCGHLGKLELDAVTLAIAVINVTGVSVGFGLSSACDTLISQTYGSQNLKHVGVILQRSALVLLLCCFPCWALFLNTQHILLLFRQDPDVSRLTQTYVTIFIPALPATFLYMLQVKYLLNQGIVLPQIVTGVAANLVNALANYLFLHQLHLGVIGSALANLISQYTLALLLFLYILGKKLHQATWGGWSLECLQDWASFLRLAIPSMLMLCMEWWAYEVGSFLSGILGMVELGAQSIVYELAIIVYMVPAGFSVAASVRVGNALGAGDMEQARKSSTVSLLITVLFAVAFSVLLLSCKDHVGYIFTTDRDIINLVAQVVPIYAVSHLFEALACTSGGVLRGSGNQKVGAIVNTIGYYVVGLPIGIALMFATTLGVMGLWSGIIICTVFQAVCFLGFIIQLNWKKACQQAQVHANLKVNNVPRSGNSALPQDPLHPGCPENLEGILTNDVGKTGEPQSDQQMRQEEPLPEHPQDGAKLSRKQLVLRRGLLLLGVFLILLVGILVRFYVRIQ
Procedure: as §1, §2, §3, §4

T3 sequence (Q96BI1 whole entry): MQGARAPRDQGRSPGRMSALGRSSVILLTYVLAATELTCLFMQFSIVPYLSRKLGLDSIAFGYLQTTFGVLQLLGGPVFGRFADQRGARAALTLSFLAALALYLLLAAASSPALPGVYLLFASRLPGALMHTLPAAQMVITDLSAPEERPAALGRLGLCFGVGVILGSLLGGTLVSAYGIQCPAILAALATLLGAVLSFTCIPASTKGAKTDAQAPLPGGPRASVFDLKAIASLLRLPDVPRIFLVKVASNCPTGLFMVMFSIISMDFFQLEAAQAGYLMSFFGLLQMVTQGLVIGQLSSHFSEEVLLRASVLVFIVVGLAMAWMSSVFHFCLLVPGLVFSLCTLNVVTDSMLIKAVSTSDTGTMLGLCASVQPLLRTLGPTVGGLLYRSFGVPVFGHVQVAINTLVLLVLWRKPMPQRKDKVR
SLC38A10, sequence (Q9HBR0 whole entry): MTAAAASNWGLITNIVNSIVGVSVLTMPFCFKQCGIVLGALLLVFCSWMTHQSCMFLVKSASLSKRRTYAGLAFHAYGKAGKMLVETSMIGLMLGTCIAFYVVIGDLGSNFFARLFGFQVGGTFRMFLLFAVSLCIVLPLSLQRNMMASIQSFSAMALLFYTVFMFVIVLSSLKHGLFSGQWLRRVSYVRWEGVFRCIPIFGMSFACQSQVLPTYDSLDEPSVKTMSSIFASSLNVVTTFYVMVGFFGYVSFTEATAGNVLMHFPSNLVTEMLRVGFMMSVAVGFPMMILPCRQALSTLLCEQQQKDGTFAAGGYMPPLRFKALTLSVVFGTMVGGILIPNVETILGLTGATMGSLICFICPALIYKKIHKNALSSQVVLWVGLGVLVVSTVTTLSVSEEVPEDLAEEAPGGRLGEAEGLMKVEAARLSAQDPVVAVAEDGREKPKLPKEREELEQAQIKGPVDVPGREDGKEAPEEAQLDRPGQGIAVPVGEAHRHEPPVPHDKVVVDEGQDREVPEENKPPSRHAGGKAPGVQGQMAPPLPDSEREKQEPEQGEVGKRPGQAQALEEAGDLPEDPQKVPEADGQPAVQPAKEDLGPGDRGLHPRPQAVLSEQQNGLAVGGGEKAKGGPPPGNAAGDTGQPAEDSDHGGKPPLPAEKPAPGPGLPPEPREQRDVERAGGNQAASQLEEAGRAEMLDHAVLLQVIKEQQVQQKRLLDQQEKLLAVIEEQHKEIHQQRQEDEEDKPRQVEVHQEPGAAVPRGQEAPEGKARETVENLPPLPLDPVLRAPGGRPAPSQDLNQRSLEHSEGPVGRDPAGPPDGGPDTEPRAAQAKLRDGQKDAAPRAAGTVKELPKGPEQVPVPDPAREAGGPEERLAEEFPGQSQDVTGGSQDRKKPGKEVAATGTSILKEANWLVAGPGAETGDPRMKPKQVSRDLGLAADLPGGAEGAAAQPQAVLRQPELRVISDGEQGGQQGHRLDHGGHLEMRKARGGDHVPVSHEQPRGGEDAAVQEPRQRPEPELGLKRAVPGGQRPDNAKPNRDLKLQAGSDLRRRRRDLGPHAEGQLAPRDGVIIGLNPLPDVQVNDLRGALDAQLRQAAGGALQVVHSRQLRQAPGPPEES
T5 sequence (Q8IZD6 whole entry): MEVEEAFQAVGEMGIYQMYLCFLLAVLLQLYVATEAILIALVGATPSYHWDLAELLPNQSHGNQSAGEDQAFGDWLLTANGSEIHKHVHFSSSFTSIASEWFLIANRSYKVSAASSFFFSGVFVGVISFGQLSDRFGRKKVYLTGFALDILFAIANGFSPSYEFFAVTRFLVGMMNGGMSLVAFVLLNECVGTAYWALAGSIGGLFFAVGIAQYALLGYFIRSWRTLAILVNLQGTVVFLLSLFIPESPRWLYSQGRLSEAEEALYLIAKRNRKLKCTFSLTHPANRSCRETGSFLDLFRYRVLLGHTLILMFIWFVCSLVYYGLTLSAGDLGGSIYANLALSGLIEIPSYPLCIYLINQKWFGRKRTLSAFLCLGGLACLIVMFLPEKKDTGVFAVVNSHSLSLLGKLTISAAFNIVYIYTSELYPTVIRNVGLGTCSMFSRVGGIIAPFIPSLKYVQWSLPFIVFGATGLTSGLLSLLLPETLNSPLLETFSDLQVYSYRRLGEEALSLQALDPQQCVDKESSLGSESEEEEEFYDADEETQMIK
SLC47A2, sequence (Q86VL8 1-566 isoform Q86VL8-3): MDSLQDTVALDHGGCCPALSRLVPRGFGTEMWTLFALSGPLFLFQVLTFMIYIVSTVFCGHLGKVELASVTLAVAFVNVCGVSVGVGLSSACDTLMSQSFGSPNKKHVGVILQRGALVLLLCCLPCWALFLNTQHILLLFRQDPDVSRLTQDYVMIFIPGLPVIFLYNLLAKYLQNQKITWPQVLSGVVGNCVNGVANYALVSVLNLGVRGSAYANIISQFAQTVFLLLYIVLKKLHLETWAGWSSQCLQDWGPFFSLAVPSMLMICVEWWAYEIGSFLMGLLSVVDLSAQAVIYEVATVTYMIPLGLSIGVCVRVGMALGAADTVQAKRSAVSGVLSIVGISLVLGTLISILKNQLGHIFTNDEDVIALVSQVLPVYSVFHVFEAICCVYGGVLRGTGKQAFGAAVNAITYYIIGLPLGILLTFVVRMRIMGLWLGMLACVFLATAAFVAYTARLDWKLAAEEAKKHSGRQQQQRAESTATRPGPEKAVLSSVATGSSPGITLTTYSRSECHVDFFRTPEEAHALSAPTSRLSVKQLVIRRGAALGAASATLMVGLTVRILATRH
SLC35G3, sequence (Q8N808 whole entry): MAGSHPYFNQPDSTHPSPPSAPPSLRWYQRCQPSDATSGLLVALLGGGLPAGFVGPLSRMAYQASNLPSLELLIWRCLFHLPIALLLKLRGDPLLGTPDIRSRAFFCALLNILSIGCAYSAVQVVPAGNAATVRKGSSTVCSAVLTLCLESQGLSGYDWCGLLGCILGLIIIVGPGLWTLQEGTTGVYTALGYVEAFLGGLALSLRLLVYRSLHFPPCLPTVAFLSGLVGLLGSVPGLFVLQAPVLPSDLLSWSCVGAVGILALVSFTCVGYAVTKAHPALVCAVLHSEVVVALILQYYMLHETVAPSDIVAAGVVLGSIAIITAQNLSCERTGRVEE
OCT1, sequence (O15245 whole entry): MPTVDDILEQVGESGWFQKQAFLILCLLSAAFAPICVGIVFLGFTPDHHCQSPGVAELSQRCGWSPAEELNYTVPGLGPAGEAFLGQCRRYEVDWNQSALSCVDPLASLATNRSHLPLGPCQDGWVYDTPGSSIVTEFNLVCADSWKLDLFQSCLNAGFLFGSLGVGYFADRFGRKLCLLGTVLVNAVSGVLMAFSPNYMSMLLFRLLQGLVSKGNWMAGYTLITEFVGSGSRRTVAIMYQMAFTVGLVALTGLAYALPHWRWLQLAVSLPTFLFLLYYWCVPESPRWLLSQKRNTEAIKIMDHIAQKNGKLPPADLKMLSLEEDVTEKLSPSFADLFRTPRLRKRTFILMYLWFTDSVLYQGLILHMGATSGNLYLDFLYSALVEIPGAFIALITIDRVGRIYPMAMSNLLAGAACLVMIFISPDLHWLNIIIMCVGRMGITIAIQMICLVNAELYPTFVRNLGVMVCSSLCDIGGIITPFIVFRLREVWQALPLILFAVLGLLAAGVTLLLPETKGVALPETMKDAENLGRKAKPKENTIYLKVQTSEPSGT
OCT2, sequence (O15244 whole entry): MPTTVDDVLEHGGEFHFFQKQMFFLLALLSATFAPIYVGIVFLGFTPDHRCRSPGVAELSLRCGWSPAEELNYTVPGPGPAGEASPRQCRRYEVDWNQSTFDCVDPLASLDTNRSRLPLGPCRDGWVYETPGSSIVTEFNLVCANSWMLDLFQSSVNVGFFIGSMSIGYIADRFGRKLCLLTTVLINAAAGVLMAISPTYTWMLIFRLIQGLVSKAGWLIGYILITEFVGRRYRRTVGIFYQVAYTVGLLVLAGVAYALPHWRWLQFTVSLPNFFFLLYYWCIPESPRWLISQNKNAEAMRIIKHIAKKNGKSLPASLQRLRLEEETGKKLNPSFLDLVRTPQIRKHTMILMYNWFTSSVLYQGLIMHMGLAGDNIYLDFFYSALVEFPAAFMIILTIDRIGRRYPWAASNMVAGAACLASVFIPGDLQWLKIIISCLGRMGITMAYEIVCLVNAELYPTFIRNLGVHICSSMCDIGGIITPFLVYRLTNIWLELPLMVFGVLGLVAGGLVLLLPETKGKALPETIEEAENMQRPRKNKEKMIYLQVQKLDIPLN

Structure (SMILES)	Uptake by SLC19A2 (in words) (SLC19A2)	Uptake data for SLC35G3, mean value (fold-increase over empty vector control) (SLC35G3)	Uptake by SLC35F5 (in words) (SLC35F5)	Uptake by SLC22A18 (in words) (SLC22A18)	Uptake by SLC35F4 (in words) (SLC35F4)	Uptake by SLC22A15 (in words) (SLC22A15)	Vmax (±SEM) (SLC38A10; SLC38A10, HEK293, net uptake over empty vector cells)	Clint (±SEM) (SLC38A10; SLC38A10, ratio of Vmax over KM)	Uptake by SLC47A2 (MATE2K) (in words) (SLC47A2)	Uptake by OCT1 (in words) (OCT1)	Uptake by OCT2 (in words) (OCT2)	Uptake by SLC47A1 (MATE1) (in words) (SLC47A1)
COC(=O)C(c1ccccc1)C1CCCCN1 (stereo not shown) [Methylphenidate]	enhance cell uptake	1.31	highest uptake rates	newly identified substrates	enhanced cell uptake							
CN1CCC[C@H]1c1cccnc1 [Nicotine]				newly identified substrates		significantly increased the uptake	48.4 (±7.26) pmol × mg protein^-1 × min^-1	0.78 (±0.57) μl × mg protein^-1 × min^-1				
Nc1nc(=O)n([C@@H]2CS[C@H](CO)O2)cc1F [emtricitabine]									only transported by the MATEs	to some extent	to some extent	only transported by the MATEs
